US20230227466A1, “SUBSTITUTED THIENOPYRIMIDINES THAT INTERACT WITH THE RAS SUPERFAMILY FOR THE TREATMENT OF CANCERS, INFLAMMATORY DISEASES, RASOPATHIES, AND FIBROTIC DISEASE” (SHY Therapeutics, LLC, priority 2020, published 2023)
Like-named read-outs stand apart in the source and are kept apart here.

Assays:
[1] = system: MIA-PaCa-2 pancreatic cancer cell line (KRAS G12C); assay: Cell proliferation assay (CellTiter 96 Aqueous One); format: cell-based; details: Homo sapiens; for inhibition at 10 µM: MIA PaCa-2, read-out: % inh cell proliferation (10 μM) in MIA PaCa-2
In short: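 After overnight attachment, compounds are added (10 μM final or serial dilutions) and left 2–4 days, with viability then measured by MTS.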

[2] = target: Rac-1 (Homo sapiens, UniProt P63000); assay: Ras GTP binding domain inhibition assay (labeled-GTP competition, cell-free); set-up: made in house
In short: (§1)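 Labeled-GTP competition read out as bound Cy3/Cy5-GTP fluorescence after washes, with 100 nM tracer for 45 min at RT. Before tracer, compounds at 20 μM, or a dilution series for IC50, sat 3 h at RT on the Ni-immobilized His-tagged GTPase. Sos GEF (10-30 μg/mL) was optionally present for the last hour.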

[3] = target: KRas wild type (Homo sapiens, UniProt P01116); assay: as above; set-up: made in house
In short: as §1

[4] = target: Rho-A (Homo sapiens, UniProt P61586); assay: as above; set-up: made in house
In short: as §1

[5] = target: T1, KRas G12C mutant (Homo sapiens, UniProt P01116, G12C); assay: as above
T1 construct: made in house
In short: as §1

[6] = target: T2, KRas G12D mutant (Homo sapiens, UniProt P01116, G12D); assay: as above
T2 construct: made in house
In short: as §1

[7] = system: Akt phosphorylation in Panc-1 cells; assay: Western AKT cell-based phosphorylation assay; set-up: species or system human; details: at 10 μM, values in brackets < > are activation %, not inhibition
In short: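 Panc-1 cells starved overnight in 0.5% FBS, exposed to compound at 10 μM (0.3% DMSO) for 6 h at 37° C, then stimulated with 1.5 ng/ml EGF for 15 min. Lysates probed by western blot with anti-phospho-Akt (Ser473), equal protein loading checked by Ponceau S.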

[8] = MIA PaCa-2, MIA-PaCa-2, 2-4 days, 10% FBS
[9] = with SOS, read-out: Rac-1 + SOS: % inh.
[10] = without SOS, read-out: Rac-1: % inh.
[11] = with SOS, read-out: KRas wild type + SOS: % inh.
[12] = without SOS, read-out: KRas wild type: % inh.
[13] = with SOS, read-out: Rho-A + SOS: % inh.
[14] = without SOS, read-out: Rho-A: % inh.
[15] = with SOS, read-out: KRas G12C mutant + SOS: % inh.
[16] = without SOS, read-out: KRas G12C mutant: % inh.
[17] = with SOS, read-out: KRas G12D mutant + SOS: % inh.
[18] = without SOS, read-out: KRas G12D mutant: % inh.

SMILES	IC50 ([1]; MIA PaCa-2, MIA PaCa-2)	IC50 [1, 8]	inhibition at 10 µM [1]	inhibition at 20 µM [2, 9]	inhibition at 20 µM [2, 10]	inhibition at 20 µM [3, 11]	inhibition at 20 µM [3, 12]	inhibition at 20 µM [4, 13]	inhibition at 20 µM [4, 14]	inhibition at 20 µM [5, 15]	inhibition at 20 µM [5, 16]	inhibition at 20 µM [6, 17]	inhibition at 20 µM [6, 18]	% inh of AKT phosphorylation in PANC-1 [7]
COCC1CCN(c2nc(-c3nccn3C)nc3sc(-c4ccn(C(C)C)n4)c(C)c23)C1 (racemic) [Compound 38, rac-6-(1-Isopropyl-1H-pyrazol-3-yl)-4-(3-(methoxymethyl)pyrrolidin-1-yl)-5-methyl-2-(1-methyl-1H-imidazol-2-yl)thieno[2,3-d]pyrimidine]	1 to 4.99 µM	0.75 to 1 µM	76 to 100%	76 to 100%	76 to 100%	76 to 100%	76 to 100%	76 to 100%	76 to 100%	76 to 100%	51 to 75%	76 to 100%	51 to 75%	B (26-50% inhibition)
COC1CCCN(c2nc(-c3nccn3C)nc3sc(-c4ccn(C(C)C)n4)c(C)c23)C1 (racemic) [Compound 40, rac-6-(1-Isopropyl-1H-pyrazol-3-yl)-4-(3-methoxypiperidin-1-yl)-5-methyl-2-(1-methyl-1H-imidazol-2-yl)thieno[2,3-d]pyrimidine]	< 1 µM	–	76 to 100%	51 to 75%	51 to 75%	76 to 100%	76 to 100%	76 to 100%	76 to 100%	76 to 100%	51 to 75%	26 to 50%	26 to 50%	D (76-100% inhibition)
COCC1COCCN1c1nc(-c2nccn2C)nc2sc(-c3ccn(C(C)C)n3)c(C)c12 (racemic) [Compound 41, rac-4-(6-(1-Isopropyl-1H-pyrazol-3-yl)-5-methyl-2-(1-methyl-1H-imidazol-2-yl)thieno[2,3-d]pyrimidin-4-yl)-3-(methoxymethyl)morpholine]	5 to 10 µM	–	51 to 75%	76 to 100%	76 to 100%	51 to 75%	51 to 75%	76 to 100%	51 to 75%	51 to 75%	51 to 75%	26 to 50%	0%	0 (0% inhibition)
CO[C@H]1CC(Nc2nc(-c3nccn3C)nc3sc(-c4ccn(C(C)C)n4)c(C)c23)C[C@@H]1OC (racemic) [Compound 44, rac-N-((3S,4S)-3,4-Dimethoxycyclopentyl)-6-(1-isopropyl-1H-pyrazol-3-yl)-5-methyl-2-(1-methyl-1H-imidazol-2-yl)thieno[2,3-d]pyrimidin-4-amine]	1 to 4.99 µM	–	76 to 100%	76 to 100%	76 to 100%	76 to 100%	76 to 100%	76 to 100%	76 to 100%	76 to 100%	76 to 100%	76 to 100%	51 to 75%	<A>
COCC1CN(c2nc(-c3nccn3C)nc3sc(-c4ccn(C(C)C)n4)c(C)c23)CCO1 (racemic) [Compound 45, rac-4-(6-(1-Isopropyl-1H-pyrazol-3-yl)-5-methyl-2-(1-methyl-1H-imidazol-2-yl)thieno[2,3-d]pyrimidin-4-yl)-2-(methoxymethyl)morpholine]	5 to 10 µM	–	26 to 50%	76 to 100%	76 to 100%	76 to 100%	76 to 100%	76 to 100%	76 to 100%	76 to 100%	51 to 75%	76 to 100%	76 to 100%	<D>
Cc1c(-c2ccn(C(C)C)n2)sc2nc(-c3nccn3C)nc(NCCC3CCC(=O)N3)c12 (racemic) [Compound 56, rac-5-(2-((6-(1-Isopropyl-1H-pyrazol-3-yl)-5-methyl-2-(1-methyl-1H-imidazol-2-yl)thieno[2,3-d]pyrimidin-4-yl)amino)ethyl)pyrrolidin-2-one]	> 10 µM	–	1 to 25%	–	76 to 100%	76 to 100%	76 to 100%	–	76 to 100%	76 to 100%	76 to 100%	76 to 100%	26 to 50%	0 (0% inhibition)
Cc1c(-c2ccn(C(C)C)n2)sc2nc(-c3nccn3C)nc(N3CCC(COC(C)C)C3)c12 (racemic) [Compound 62, rac-4-(3-(Isopropoxymethyl)pyrrolidin-1-yl)-6-(1-isopropyl-1H-pyrazol-3-yl)-5-methyl-2-(1-methyl-1H-imidazol-2-yl)thieno[2,3-d]pyrimidine]	< 1 µM	–	76 to 100%	–	1 to 25%	51 to 75%	51 to 75%	–	76 to 100%	51 to 75%	–	51 to 75%	26 to 50%	B (26-50% inhibition)
COC[C@@H]1CC[C@@H]1CNc1nc(-c2nccn2C)nc2sc(-c3ccn(C(C)C)n3)c(C)c12 (racemic) [Compound 63, rac-6-(1-Isopropyl-1H-pyrazol-3-y)-N-(((1S,2R)-2-(methoxymethyl)cyclobutyl)methyl)-5-methyl-2-(1-methyl-1H-imidazol-2-yl)thieno[2,3-d]pyrimidin-4-amine]	< 1 µM	< 0.4 µM	76 to 100%	–	26 to 50%	26 to 50%	51 to 75%	–	51 to 75%	26 to 50%	26 to 50%	51 to 75%	51 to 75%	C (51-75% inhibition)
CO[C@H]1CC[C@@H](Nc2nc(-c3ccccn3)nc3sc(-c4ccn(C(C)C)n4)c(C)c23)C1 (racemic) [Compound 69, Rac-6-(1-isopropyl-1H-pyrazol-3-yl)-N-((1R,3S)-3-methoxycyclopentyl)-5-methyl-2-(pyridine-2-yl)thieno[2,3-d]pyrimidin-4-amine]	5 to 10 µM	–	76 to 100%	26 to 50%	1 to 25%	51 to 75%	51 to 75%	51 to 75%	51 to 75%	51 to 75%	51 to 75%	51 to 75%	51 to 75%	D (76-100% inhibition)
COC1CCCN(c2nc(-c3ccccn3)nc3sc(-c4ccn(C(C)C)n4)c(C)c23)C1 (racemic) [Compound 70, Rac-6-(1-Isopropyl-1H-pyrazol-3-yl)-4-(3-methoxypiperidin-1-yl)-5-methyl-2-(pyridin-2-yl)thieno[2,3-d]pyrimidine]	5 to 10 µM	–	76 to 100%	26 to 50%	26 to 50%	26 to 50%	26 to 50%	51 to 75%	51 to 75%	26 to 50%	51 to 75%	26 to 50%	26 to 50%	0 (0% inhibition)
COCC1CCN(c2nc(-c3ccccn3)nc3sc(-c4ccn(C(C)C)n4)c(C)c23)C1 (racemic) [Compound 71, Rac-6-(1-Isopropyl-1H-pyrazol-3-yl)-4-(3-(methoxymethyl)pyrrolidin-1-yl)-5-methyl-2-(pyridin-2-yl)thieno[2,3-d]pyrimidine]	5 to 10 µM	–	76 to 100%	–	0%	26 to 50%	26 to 50%	–	76 to 100%	26 to 50%	26 to 50%	1 to 25%	0%	D (76-100% inhibition)
